This experiment concerns the target T1, estrogen receptor ERα (Homo sapiens, UniProt P03372).
T1 sequence (P03372 1-595): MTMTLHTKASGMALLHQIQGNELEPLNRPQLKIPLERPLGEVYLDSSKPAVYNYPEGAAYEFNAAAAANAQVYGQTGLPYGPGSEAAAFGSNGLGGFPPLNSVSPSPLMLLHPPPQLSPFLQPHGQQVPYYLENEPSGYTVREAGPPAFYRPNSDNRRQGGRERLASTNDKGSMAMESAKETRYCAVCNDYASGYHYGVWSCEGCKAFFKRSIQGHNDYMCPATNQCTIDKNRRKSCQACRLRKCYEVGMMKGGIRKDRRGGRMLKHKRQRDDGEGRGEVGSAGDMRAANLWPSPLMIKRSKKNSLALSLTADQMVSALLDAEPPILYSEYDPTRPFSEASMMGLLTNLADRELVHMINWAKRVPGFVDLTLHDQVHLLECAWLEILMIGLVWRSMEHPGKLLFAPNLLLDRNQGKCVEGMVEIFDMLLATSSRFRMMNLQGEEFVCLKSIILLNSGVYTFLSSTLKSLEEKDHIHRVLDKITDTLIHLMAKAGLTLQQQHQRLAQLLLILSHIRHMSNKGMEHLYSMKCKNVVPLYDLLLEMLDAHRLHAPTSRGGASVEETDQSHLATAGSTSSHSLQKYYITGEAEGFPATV
Description: Binding activity on human nuclear receptor ERα. The following applies: mean ± SD, n = 4. As to the method:
Buffer solution is composed of 25 mM NaPO4, 20 mM NaMoO4, 10 mM KF and 10% glycerol (pH=7.3) and stored under 4° C. Stock solution is prepared with CHAPS and DTT and stored under −20° C. […] Add 2.5 μl/hole into 96-pore plate. Take out appropriate amount of buffer solution reserve into solution to make the final concentration of CHAPS and DDT to become 0.25 mM and 2 mM respectively. Add protease inhibitors (aprotinin and leupeptin) to make its final concentration to become 1 μg/μl, and place in an ice bath. After adding human nuclear receptor GR (1:8), PR (1:100), ER (1:2000), AR (1:200) and MR (1:40) into the reaction system respectively, adequately mix suitable quantity of [^3H]-dexamethasone, [^3H]-progesterone, [^3H]-estradiol and [^3H]-DHT (from Amersham), rapidly add into 96-pore plate (100 μl/pore) and incubate overnight under 4° C. On the next day, add 25 μl of hydroxyapatite suspension into each pore and mix with shaking. After incubating for 10 min, separate by centrifuge for 3 min at 2500 rpm. The precipitate is washed with 100 μl of buffer solution and separated by centrifuge twice. Add 150 μl of scintillation solution (from Perkin Elmer) into each pore, mix with shaking and count by MicroBeta counter.

Structures are written as SMILES.

Turning to `CC#C[C@]1(O)CC[C@H]2[C@@H]3CCC4=CC(=O)CCC4=C3[C@@H](c3ccc(N(C)C4CCCCC4)cc3)C[C@@]21C` [Cymipristone, 11β-[4-(N-methyl-N-cyclohexylamino)phenyl]-17α-(1-propynyl)-17β-hydroxyl-4,9-estradiene-3-one], the IC50 is 516 ± 62.8 nM.

The values are drawn from US20090111781A1, “Use of Cymipristone Type Compounds in Aids Treatment” (SHANGHAI THREE-ALLIANCE BIOTECHNOLOGIES CO., LTD., priority 2005, published 2009).
